# ChEMBL document CHEMBL1909046, “DrugMatrix in vitro pharmacology data”
# What was measured:
# [1] = DRUGMATRIX: Phorbol Ester radioligand binding (ligand: [3H] PDBu); format: cell membranes, Mus musculus, ICR, Brain, Membrane; conditions: Not Active = under 50% inhibition at 10 µM
# [2] = target: Sigma non-opioid intracellular receptor 1 (Homo sapiens, UniProt Q99720); test: DRUGMATRIX: Sigma1 radioligand binding (ligand: [3H] Haloperidol); format: cell membranes, Jurkat, Membrane; conditions: Not Active = under 50% inhibition at 10 µM
# Sequence of Sigma non-opioid intracellular receptor 1 (Q99720 whole entry): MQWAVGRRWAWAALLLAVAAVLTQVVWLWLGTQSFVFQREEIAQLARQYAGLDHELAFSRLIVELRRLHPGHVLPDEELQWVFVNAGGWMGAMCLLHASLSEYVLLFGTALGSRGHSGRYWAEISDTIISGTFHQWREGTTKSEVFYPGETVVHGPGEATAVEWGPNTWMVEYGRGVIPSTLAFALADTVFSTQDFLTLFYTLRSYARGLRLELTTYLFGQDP
# Glycine receptor = Glycine receptor (Rattus norvegicus, UniProt P22771+P24524+P07727+P20781); format: cell membranes, Wistar, Spinal cord, Membrane; note: in other assays of this panel Not Active means under 50% inhibition at 10 µM
# [3] = DRUGMATRIX: Calcium Channel Type L, Benzothiazepine radioligand binding (ligand: [3H] Diltiazem); format: cell membranes, Rattus norvegicus, Wistar, Brain, Membrane; conditions: Not Active = under 50% inhibition at 10 µM
# [4] = target: Prostaglandin G/H synthase 1 (Homo sapiens, UniProt P23219); test: biochemical; format: tissue-based, Platelet;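 note: inhibition of COX-1 enzyme activity, with arachidonic acid supplied as substrate; in other assays of this panel Not Active means under 50% inhibition at 10 µM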
# Sequence of Prostaglandin G/H synthase 1 (P23219 whole entry): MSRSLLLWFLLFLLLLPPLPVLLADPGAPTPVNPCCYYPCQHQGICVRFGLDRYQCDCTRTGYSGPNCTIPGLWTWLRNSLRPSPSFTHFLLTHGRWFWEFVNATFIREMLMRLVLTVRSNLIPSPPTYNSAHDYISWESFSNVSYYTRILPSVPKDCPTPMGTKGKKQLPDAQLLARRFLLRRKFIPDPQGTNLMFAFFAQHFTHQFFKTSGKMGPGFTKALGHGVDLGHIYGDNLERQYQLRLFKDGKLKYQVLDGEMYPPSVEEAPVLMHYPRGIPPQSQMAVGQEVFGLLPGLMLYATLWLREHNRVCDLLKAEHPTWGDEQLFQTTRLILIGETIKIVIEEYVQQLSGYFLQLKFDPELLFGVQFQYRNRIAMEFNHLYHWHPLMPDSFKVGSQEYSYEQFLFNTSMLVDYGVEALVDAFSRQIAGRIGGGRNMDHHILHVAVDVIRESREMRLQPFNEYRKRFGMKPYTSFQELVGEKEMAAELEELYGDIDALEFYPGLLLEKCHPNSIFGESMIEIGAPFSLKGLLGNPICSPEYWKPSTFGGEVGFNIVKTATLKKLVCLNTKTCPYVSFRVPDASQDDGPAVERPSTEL
# [5] = DRUGMATRIX: Interleukin IL-1 radioligand binding (ligand: [125I] interleukin 1beta); format: cell membranes, Membrane; conditions: nih3t3; Not Active = under 50% inhibition at 10 µM
# [6] = DRUGMATRIX: Phosphodiesterase PDE4 enzyme inhibition (substrate: [3H]cAMP + cAMP); conditions: u-937; Not Active = under 50% inhibition at 10 µM
Compound,IC50 [1],Ki [1],IC50 ([2]; jurkat),IC50 (Glycine receptor),IC50 [3],Ki [3],IC50 ([4]; platelet),IC50 [5],Ki [5],IC50 [6],Ki [6],IC50 ([4]; read-out: IC50) [µM],IC50 ([2]; read-out: IC50) [µM],Ki ([2]; read-out: Ki) [µM],Ki ([2]; jurkat),Ki (Glycine receptor),Ki ([4]; platelet)
Cn1c(=O)c2c(ncn2CC(O)CO)n(C)c1=O (configuration not stated) [DYPHYLLINE],Not Active,Not Active,Not Active,Not Active,Not Active,Not Active,Not Active,Not Active,Not Active,Not Active,Not Active,–,–,–,–,–,–
O=C(O)c1cccnc1Nc1cccc(C(F)(F)F)c1 [NIFLUMIC ACID],Not Active,Not Active,Not Active,Not Active,Not Active,Not Active,–,Not Active,Not Active,Not Active,Not Active,–,–,–,–,–,–
CC(C)c1cccc(C(C)C)c1O [PROPOFOL],Not Active,Not Active,Not Active,Not Active,Not Active,Not Active,–,Not Active,Not Active,Not Active,Not Active,3.83,–,–,–,–,–
COC(=O)Nc1nc2ccc(C(=O)c3cccs3)cc2[nH]1 [NOCODAZOLE],Not Active,Not Active,Not Active,Not Active,Not Active,Not Active,Not Active,Not Active,Not Active,Not Active,Not Active,–,–,–,–,–,–
N=C(N)NC(=O)Cc1c(Cl)cccc1Cl [GUANFACINE],Not Active,Not Active,Not Active,Not Active,Not Active,Not Active,Not Active,Not Active,Not Active,Not Active,Not Active,–,–,–,–,–,–
CC(C)NCC(O)COc1cccc2[nH]ccc12 (configuration not stated) [PINDOLOL],Not Active,Not Active,Not Active,Not Active,Not Active,Not Active,Not Active,Not Active,Not Active,Not Active,Not Active,–,–,–,–,–,–
CC(=O)[C@@]1(O)CC[C@H]2[C@@H]3CCC4=CC(=O)CC[C@]4(C)[C@H]3CC[C@@]21C [HYDROXYPROGESTERONE],Not Active,Not Active,Not Active,Not Active,Not Active,Not Active,Not Active,Not Active,Not Active,Not Active,Not Active,–,–,–,–,–,–
CC(=O)O[C@H]1C(=O)[C@@]2(C)[C@H]([C@H](OC(=O)c3ccccc3)[C@]3(O)C[C@H](OC(=O)[C@H](O)[C@@H](NC(=O)c4ccccc4)c4ccccc4)C(C)=C1C3(C)C)[C@]1(OC(C)=O)CO[C@@H]1C[C@@H]2O [PACLITAXEL],Not Active,Not Active,Not Active,Not Active,Not Active,Not Active,Not Active,Not Active,Not Active,Not Active,Not Active,–,–,–,–,–,–
CCCOc1ccc(C(=O)OCCN(CC)CC)cc1N [PROPARACAINE],Not Active,Not Active,–,Not Active,Not Active,Not Active,Not Active,Not Active,Not Active,Not Active,Not Active,–,0.238,0.1,–,–,–
O=C(N/N=C/c1ccc([N+](=O)[O-])o1)c1cc([N+](=O)[O-])cc([N+](=O)[O-])c1O [NIFURSOL],Not Active,Not Active,Not Active,Not Active,Not Active,Not Active,Not Active,Not Active,Not Active,Not Active,Not Active,–,–,–,–,–,–
CC(=O)Oc1ccc(C(c2ccc(OC(C)=O)cc2)c2ccccn2)cc1 [BISACODYL],Not Active,Not Active,Not Active,Not Active,Not Active,Not Active,Not Active,Not Active,Not Active,Not Active,Not Active,–,–,–,–,–,–
CN(C)[C@@H]1C(O)=C(C(N)=O)C(=O)[C@@]2(O)C(O)=C3C(=O)c4c(O)ccc(Cl)c4[C@@](C)(O)[C@H]3C[C@@H]12 [CHLORTETRACYCLINE],Not Active,Not Active,Not Active,Not Active,Not Active,Not Active,Not Active,Not Active,Not Active,Not Active,Not Active,–,–,–,–,–,–
Nc1ccn([C@@H]2O[C@H](CO)[C@@H](O)[C@@H]2O)c(=O)n1 [CYTARABINE],Not Active,Not Active,Not Active,Not Active,Not Active,Not Active,Not Active,Not Active,Not Active,Not Active,Not Active,–,–,–,–,–,–
CCC1(CCC(C)C)C(=O)NC(=O)NC1=O [AMOBARBITAL],Not Active,Not Active,Not Active,Not Active,Not Active,Not Active,Not Active,Not Active,Not Active,Not Active,Not Active,–,–,–,–,–,–
AURANOFIN,Not Active,Not Active,Not Active,Not Active,Not Active,Not Active,Not Active,Not Active,Not Active,Not Active,Not Active,–,–,–,Not Active,Not Active,Not Active
O=C/C=C/c1ccccc1,Not Active,Not Active,Not Active,Not Active,Not Active,Not Active,Not Active,Not Active,Not Active,Not Active,Not Active,–,–,–,–,–,–
C=CCc1ccc(O)c(OC)c1 [EUGENOL],Not Active,Not Active,Not Active,Not Active,Not Active,Not Active,Not Active,Not Active,Not Active,Not Active,Not Active,–,–,–,–,–,–
COC1=C(OC)C(=O)C(CCCCCCCCCCO)=C(C)C1=O [IDEBENONE],Not Active,Not Active,Not Active,Not Active,Not Active,Not Active,Not Active,Not Active,Not Active,Not Active,Not Active,–,–,–,–,–,–
Oc1cccc(O)c1O [PYROGALLOL],Not Active,Not Active,Not Active,Not Active,Not Active,Not Active,Not Active,Not Active,Not Active,Not Active,Not Active,–,–,–,–,–,–
C[C@]12C=CC(=O)C=C1CC[C@@H]1[C@@H]2[C@@H](O)C[C@@]2(C)[C@H]1CC[C@]2(O)C(=O)CO [PREDNISOLONE],Not Active,Not Active,Not Active,Not Active,Not Active,Not Active,Not Active,Not Active,Not Active,Not Active,Not Active,–,–,–,–,–,–
CC(=O)[C@H]1[C@H](C#N)C[C@H]2[C@@H]3CC=C4C[C@@H](O)CC[C@]4(C)[C@H]3CC[C@@]21C [PREGNENOLONE CARBONITRILE],Not Active,Not Active,–,Not Active,Not Active,Not Active,Not Active,Not Active,Not Active,Not Active,Not Active,–,21.3,8.95,–,–,–
CC(C(=O)O)c1cccc(Oc2ccccc2)c1 (configuration not stated) [FENOPROFEN],Not Active,Not Active,Not Active,Not Active,Not Active,Not Active,–,Not Active,Not Active,Not Active,Not Active,0.145,–,–,–,–,–
NNc1nncc2ccccc12 [HYDRALAZINE],Not Active,Not Active,Not Active,Not Active,Not Active,Not Active,Not Active,Not Active,Not Active,Not Active,Not Active,–,–,–,–,–,–
CC[C@H](C)[C@H]1O[C@]2(C=C[C@@H]1C)C[C@@H]1C[C@@H](C/C=C(\C)[C@@H](O[C@H]3C[C@H](OC)[C@@H](O[C@H]4C[C@H](OC)[C@@H](O)[C@H](C)O4)[C@H](C)O3)[C@@H](C)/C=C/C=C3\CO[C@@H]4[C@H](O)C(C)=C[C@@H](C(=O)O1)[C@]34O)O2.CO[C@H]1C[C@H](O[C@H]2[C@H](C)O[C@@H](O[C@@H]3/C(C)=C/C[C@@H]4C[C@@H](C[C@]5(C=C[C@H](C)[C@@H](C(C)C)O5)O4)OC(=O)[C@@H]4C=C(C)[C@@H](O)[C@H]5OC/C(=C\C=C\[C@@H]3C)[C@]54O)C[C@@H]2OC)O[C@@H](C)[C@@H]1O [ABAMECTIN],Not Active,Not Active,Not Active,–,Not Active,Not Active,Not Active,Not Active,Not Active,Not Active,Not Active,–,–,–,–,–,–
